Laboratory results from the supplement of paper PMC10307832.

Experiments:
Test in all cases: relative viability (nuclei count vs DMSO), 5 days (fraction); higher = more cells survive
Gemcitabine = compound: Nc1ccn([C@@H]2O[C@H](CO)[C@@H](O)C2(F)F)c(=O)n1 [Gemcitabine]
How it was run: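 For viability, nuclei in each treated well were divided by nuclei in vehicle wells and the median across plates was taken. Lung cancer cell lines in 1536-well plates were pinned with five library-drug doses (not always all listed) spaced by √10, cultured 5 days without medium change, and imaged at 4× after Hoechst staining, with plates passing only at control CV below 25% and at least one doubling.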

Gemcitabine + Trametinib = compound: Nc1ccn([C@@H]2O[C@H](CO)[C@@H](O)C2(F)F)c(=O)n1 [Gemcitabine] + CC(=O)Nc1cccc(-n2c(=O)n(C3CC3)c(=O)c3c(Nc4ccc(I)cc4F)n(C)c(=O)c(C)c32)c1 [Trametinib] (partner 0.02 µM)
How it was run: (§1)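 Nuclei were stained with Hoechst during a one-step fixation (final 0.05% Triton X-100, 1% formaldehyde, 1 ug/ml Hoechst) carried out 5 days after dosing, then counted on 4× images. The cells, lung cancer lines in 1536-well plates, had been dosed by pin tool the day after seeding with one drug alone or a fixed anchor-drug dose plus five library-drug doses (not always all listed) in √10 steps. Relative viability is the nuclei count in treated wells divided by that in vehicle wells, and each value is the median of duplicate plates.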

Gemcitabine + Tozasertib = compound: Nc1ccn([C@@H]2O[C@H](CO)[C@@H](O)C2(F)F)c(=O)n1 [Gemcitabine] + Cc1cc(Nc2cc(N3CCN(C)CC3)nc(Sc3ccc(NC(=O)C4CC4)cc3)n2)n[nH]1 [Tozasertib] (partner 0.1 µM)
How it was run: as §1

Gemcitabine + AZD7762 = compound: Nc1ccn([C@@H]2O[C@H](CO)[C@@H](O)C2(F)F)c(=O)n1 [Gemcitabine] + NC(=O)Nc1cc(-c2cccc(F)c2)sc1C(=O)N[C@H]1CCCNC1 [AZD7762] (partner 0.2 µM)
How it was run: as §1

Cell Line | relative viability (Gemcitabine; 0.001 µM) | relative viability (Gemcitabine; 0.003162 µM) | relative viability (Gemcitabine; 0.01 µM) | relative viability (Gemcitabine; 0.03162 µM) | relative viability (Gemcitabine; 0.1 µM) | relative viability (Gemcitabine + Trametinib; first compound 0.001 µM) | relative viability (Gemcitabine + Trametinib; first compound 0.003162 µM) | relative viability (Gemcitabine + Trametinib; first compound 0.01 µM) | relative viability (Gemcitabine + Trametinib; first compound 0.03162 µM) | relative viability (Gemcitabine + Trametinib; first compound 0.1 µM) | relative viability (Gemcitabine + Tozasertib; first compound 0.001 µM) | relative viability (Gemcitabine + Tozasertib; first compound 0.003162 µM) | relative viability (Gemcitabine + Tozasertib; first compound 0.01 µM) | relative viability (Gemcitabine + Tozasertib; first compound 0.03162 µM) | relative viability (Gemcitabine + Tozasertib; first compound 0.1 µM) | relative viability (Gemcitabine + AZD7762; first compound 0.001 µM) | relative viability (Gemcitabine + AZD7762; first compound 0.003162 µM) | relative viability (Gemcitabine + AZD7762; first compound 0.01 µM) | relative viability (Gemcitabine + AZD7762; first compound 0.03162 µM) | relative viability (Gemcitabine + AZD7762; first compound 0.1 µM)
HCC-15 | 1.04 | 1.06 | 0.941 | 0.468 | 0.108 | 0.369 | 0.383 | 0.363 | 0.196 | 0.0914 | 0.51 | 0.436 | 0.39 | 0.247 | 0.0632 | 1.03 | 1.21 | 1.18 | 0.129 | 0.113
NCI-H647 | 0.786 | 0.202 | 0.0889 | 0.0675 | 0.0582 | 0.404 | 0.286 | 0.117 | 0.0909 | 0.0535 | 0.395 | 0.098 | 0.0474 | 0.0387 | 0.0371 | 0.098 | 0.0427 | 0.0235 | 0.0216 | 0.0238
NCI-H1651 | 0.987 | 0.955 | 0.929 | 0.285 | 0.141 | 0.828 | 0.813 | 0.826 | 0.185 | 0.114 | 0.621 | 0.683 | 0.693 | 0.177 | 0.0714 | 0.519 | 0.435 | 0.39 | 0.0714 | 0.0892
NCI-H1734 | 0.984 | 0.856 | 0.263 | 0.121 | 0.125 | 0.705 | 0.44 | 0.193 | 0.135 | 0.1 | 0.243 | 0.264 | 0.125 | 0.104 | 0.105 | 0.153 | 0.118 | 0.0866 | 0.113 | 0.0969
NCI-H3122 | 0.975 | 1.04 | 0.913 | 0.214 | 0.14 | 0.219 | 0.237 | 0.174 | 0.141 | 0.0965 | 0.428 | 0.365 | 0.222 | 0.106 | 0.0862 | 1.02 | 0.783 | 0.126 | 0.0803 | 0.097
CAL-12T | 1.04 | 0.935 | 0.643 | 0.206 | 0.14 | 0.234 | 0.356 | 0.323 | 0.223 | 0.193 | 0.292 | 0.35 | 0.29 | 0.22 | 0.129 | 0.624 | 0.548 | 0.227 | 0.206 | 0.23
HCC-78 | 0.849 | 0.595 | 0.436 | 0.255 | 0.237 | 0.749 | 0.42 | 0.373 | 0.274 | 0.231 | 0.448 | 0.37 | 0.147 | 0.198 | 0.164 | 0.477 | 0.303 | 0.186 | 0.214 | 0.277
NCI-H2085 | 1.05 | 0.954 | 0.852 | 0.792 | 0.439 | 0.512 | 0.589 | 0.472 | 0.174 | 0.226 | 0.729 | 0.858 | 0.731 | 0.562 | 0.443 | 0.949 | 0.847 | 0.613 | 0.337 | 0.271
